What was measured:
[1] = tested on: AT1 mRNA; experiment: Real-time qPCR on cardiac tissue, AT1; format: in vivo, rat
Text: (§1) Real-Time qPCR—Gene expression was quantified by qPCR on cardiac tissue. Primers used were acquired from Integrated DNA Technologies and listed here 5′-3′: angiotensin MAS1 receptor (Mas1) Fw: […] (SEQ ID NO:1), Rv: […] (SEQ ID NO:2).

[2] = tested on: Mas1 mRNA; experiment: Real-time qPCR on cardiac tissue, Mas1; format: in vivo, rat; settings: 74% lower in OLETF control than LETO
Text: as §1

CCCCCc1cc(O)c(C2CC(C)CCC2C(C)C)c(O)c1 (centres unmarked) [H4CBD, 2-(2-isopropyl-5-methylcyclohexyl)-5-pentylbenzene-1,3-diol]
AT1 mRNA expression higher than control OLETF [1]: 49%
Mas1 mRNA expression [2]: not rescued
